For test [1], the target named is T1, hACE2 (Homo sapiens, UniProt Q9BYF1). The following applies: Jena et al.; cited from earlier work.
The target of test [2] is RBD of SARS-CoV-2 spike protein (Severe acute respiratory syndrome coronavirus 2, UniProt P0DTC2). The following applies: Jena et al.; cited from earlier work.
The test system of test [3] is lysosomal/endosomal pH of A549 cells. The test is described as follows: Endosomal/lysosomal pH assay in A549 cells. It is filed as cell-based, human. The following applies: 5.0-25 μg/ml; control approximately pH=5.0.
Protocol: Acridine orange (Thermo Fisher Scientific, Waltham, MA) was added directly to each dish to reach a final concentration of 6.6 μg/ml. The cells were additionally incubated at 37° C. with 5% CO2 for 20 min. and washed three times with 1×PBS. Live Cell Imaging Solution (LCIS) (Thermo Fisher Scientific, Waltham, MA) was added to the wells, and images were taken using a Zeiss Axio Observer A1 fluorescence microscope with a 40× magnification. […] Results are expressed as a percentage of polyphenol-free control (mean+/−SD, n=3).
A concurrent experiment was performed using pHrodo™ Green AM Intracellular pH Indicator (Thermo Fisher Scientific, Waltham, MA) according to the manufacturer's protocol. […] Next, 10 μl of the pHrodo™ Green AM dye was added to 100 μl of PowerLoad™ to facilitates uniform cellular loading of AM esters, and the whole dye solution was transferred into 10 ml of LCIS. […] The plate was incubated for 30 min. at 37° C., washed again with LCIS, and fluorescence was measured at Ex/Em=509/533 nm wavelength using a spectrofluorometer (Tecan Group Ltd, Switzerland). pH identification was performed based on standard curve, using an Intracellular pH Calibration Buffer Kit according to the manufacturer's protocol (Thermo Fisher Scientific, Waltham, MA). […] Next, the fluorescence was measured Ex/Em=509/533 nm wavelength. […]
In test [4] the test system is SARS-CoV-2 spike protein pseudo-typed virions. The format is cell-based.
For test [5], the target named is RBD of SARS-CoV-2 spike protein / hACE2 receptor (Severe acute respiratory syndrome coronavirus 2, UniProt P0DTC2). The format is binding. Particulars: 100 μg/ml.
The subject of the next test is cathepsin L. The test is described as follows: Cathepsin L expression in A549 cells (Western blot). The format is cell-based, human. The following applies: 24 h. In general terms: In western blotting, separated proteins are transferred to a membrane and probed.
The subject of test [6] is A549 cells expressing SARS-CoV-2 spike protein / hACE2/A549 cells. The format is cell-based, human. Particulars: 25 μg/ml, 4 h.
The target of test [7] is T1, hACE2. Put plainly: ACE2 binding assay (ACE2 Inhibitor Screening Assay Kit). Details: purchased BPS Bioscience.
In test [8] the test system is SARS-CoV-2 spike protein pseudo-typed virions. It is filed as cell-based. The source holds these as a separate data set.

Some results are limits rather than exact numbers.

This is an account of results in US20230321126A1 (priority 2020, published 2023).

T1 sequence (Q9BYF1 18-805): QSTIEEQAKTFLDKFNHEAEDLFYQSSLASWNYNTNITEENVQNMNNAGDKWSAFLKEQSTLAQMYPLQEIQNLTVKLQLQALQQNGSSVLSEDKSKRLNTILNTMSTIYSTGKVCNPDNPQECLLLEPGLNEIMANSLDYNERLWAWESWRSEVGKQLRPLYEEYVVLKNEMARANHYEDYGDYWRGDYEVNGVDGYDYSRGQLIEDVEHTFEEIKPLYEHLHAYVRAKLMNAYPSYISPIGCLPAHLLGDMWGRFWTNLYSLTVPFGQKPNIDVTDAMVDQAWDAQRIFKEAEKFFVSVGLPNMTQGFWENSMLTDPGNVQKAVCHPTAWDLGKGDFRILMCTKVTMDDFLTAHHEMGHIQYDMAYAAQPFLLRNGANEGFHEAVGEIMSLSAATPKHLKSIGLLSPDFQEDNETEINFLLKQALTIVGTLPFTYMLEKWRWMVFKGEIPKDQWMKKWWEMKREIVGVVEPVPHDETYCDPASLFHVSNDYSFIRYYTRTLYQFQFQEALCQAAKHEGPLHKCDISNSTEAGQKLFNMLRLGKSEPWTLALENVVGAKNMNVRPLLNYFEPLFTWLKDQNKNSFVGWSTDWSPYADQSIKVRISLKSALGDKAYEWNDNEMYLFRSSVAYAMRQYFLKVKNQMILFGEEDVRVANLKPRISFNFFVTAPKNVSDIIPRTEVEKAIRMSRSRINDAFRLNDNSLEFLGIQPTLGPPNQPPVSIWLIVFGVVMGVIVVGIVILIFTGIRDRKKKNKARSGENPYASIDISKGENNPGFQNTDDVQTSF
Protocol for cathepsin L: Western blot analysis: A549 cells were treated with indicated concentrations of selected polyphenols and lysed using RIPA lysis buffer (Sigma, St. Louis, MO) supplemented with 1× Complete protease inhibitors (Roche Applied Science, Indianapolis, IN). The protein concentration was measured by the Dc protein assay (Bio-Rad, Hercules, CA). Proteins (50 μg/well) were separated on 8-16% gradient SDS-PAGE gels and transferred to a PVDF membrane. Specific proteins were detected with commercially available human anti-cathepsin L, anti-TMPRSS2, and anti-ACE2 monoclonal antibodies, all at 1:200 dilution, and anti-β-actin antibody as a loading control at 1:1000 dilution. Images were captured with Azure™ cSeries digital imaging system (Azure Biosystems, Dublin, CA) with auto-exposure settings. Densitometry was performed with NIH ImageJ software.
Cathepsin L expression: Expression of cathepsin L in cells was performed using Western blot. […] Next, cells were washed with 1×PBS, lysed, and processed according to procedure described below.
Western blot: A495 cells were lysed with lysis buffer [R IPA buffer plus 1× Protease Inhibitor (ThermoFisher Scientific, Waltham, MA)]. The protein estimation was performed with Dc Protein Assay (Bio-Rad, Hercules, CA). A 45 μg/well of protein was separated on 8-16% gradient SDS-PAGE gels and transferred to a PVDF membrane. […]

As to catechin, at hACE2 [1], the “binding affinity to hACE2” value is -7.8 kcal/mol. Moreover, the “binding affinity to viral spike protein” value in [2] is -7.9 kcal/mol.

For theaflavin-3,3′-digallate [TF-3], in test [3], the “lysosomal/endosomal pH” value is listed as 5.5-6.0 pH. Also, the “binding of pseudo-typed virions to hACE2/A549” value (shortened to “binding of pseudo-typed virions”) in test [4] is listed as “inhibit, in dose-dependent fashion”.

For the compound `Oc1ccc2c(c1)OC[C@]1(O)Cc3cc(O)c(O)cc3[C@H]21` [Brazilin], the “rank of inhibitory effect among 56 polyphenols and plant extracts” value in test [5] was “highest inhibitory effect”. The “cathepsin L expression at protein level” value with cathepsin L is listed as “neither brazilin nor curcumin downregulated cathepsin L expression”. The compound also registered a decrease of fusion in [6] of 40%. The “direct binding to ACE2” value at hACE2 [7] was “does not bind to ACE2 directly”. The “binding of pseudo-typed virions” value in test [4] is listed as “inhibit, in dose-dependent fashion”.

On to `COc1cc(/C=C/C(=O)CC(=O)/C=C/c2ccc(O)c(OC)c2)ccc1O` [Curcumin], for which the “binding affinity to hACE2” value at hACE2 [1] is -8.9 kcal/mol. Further, in [5], the “rank of inhibitory effect among 56 polyphenols and plant extracts” value was “highest inhibitory effect”. The “cathepsin L expression at protein level” value in the test on cathepsin L is given as “neither brazilin nor curcumin downregulated cathepsin L expression”. In addition, the “concentration from which significant inhibition was seen” value in [8] was ≥ 5.0 µg/mL. In addition, the “binding affinity to viral spike protein” value in test [2] was -10.5 kcal/mol. In addition, the “concentration showing binding efficacy to ACE2” value on hACE2 [7] lay in the range of 10 to 25 µg/mL. Besides, in test [4], the “binding of pseudo-typed virions” value was “inhibit, in dose-dependent fashion”.
